# Assay results taken from patent US12697748B2, “Wood treatment compositions having antimicrobial properties” (Société en Commandite Prolam, priority 2022, dated 2026).
# Key:
# Assay type in all cases: cell-based
# [1] = tested on: Escherichia coli ATCC 11229; assay: Qualitative antibacterial effect, inhibition zone after 48 h (Example 6); conditions: filter (diameter 10 mm)
# Experimental: Cubic pieces of Maplewood of about 1 cm of thickness with a surface of about […] were provided. For Sample Y, the pieces were heated on a heating plate at 230° C. for about 45 seconds, and dipped into the tannin solution for about 25 seconds, again heated on the heating plate for about 45 seconds and dipped in paraffin at 65° C. for about 25 seconds. For Sample X, the pieces were heated on a heating plate for about 45 seconds, and dipped into the tannin solution for about 25 seconds.
# After the above impregnation, manual vaporization of the Tanac Weibull™ solution was also conducted. Samples X and Y were sprayed five times each, with 24 h between each spray.
# The growth inhibition for Escherichia coli ATCC 11229 was determined. A culture of the microorganism was spread at the surface of Tryptic Soy agar (TSA) nutrient gel. Treated wood cubic pieces of about 3 mm of thickness with a surface of about 1 cm^2, as prepared above. The wooden pieces of Sample X (duplicated) were then rehumidified with water, Sample Y was not rehumidified and two Samples Z (no treated) were used: as is and rehumidified. Each piece was deposited on the nutrient gel, treated face down, contacting the gel. […] After the incubation period, the growth inhibition zone was measured and the incubation pursued at 48 h to evaluate the growth under the wooden cubes after the prolonged incubation.
# [2] = tested on: Escherichia coli ATCC 11229; assay: Growth inhibition zone of treated wood pieces on TSA nutrient gel; conditions: 24 h at 36° C., listed as Negative control
# Experimental: (§1) Cubic pieces of Maplewood of about 3 mm of thickness with a surface of about 1 cm^2 were provided. For Sample A, the pieces were heated on a heating plate at 230° C. for about 45 seconds, and dipped into the tannin solution for about 25 seconds, again heated on the heating plate for about 45 seconds and dipped in paraffin at 65° C. for about 25 seconds. For Sample B, the pieces were heated on a heating plate for about 45 seconds, and dipped into the tannin solution for about 25 seconds. The impregnation rate was calculated to be around 645 g/m^2 (60 g/pi^2).
# (§2) The growth inhibition for Escherichia coli ATCC 11229 and Staphylococcus aureus ATCC 6538 was first determined. A culture of each microorganism was spread at the surface of Tryptic Soy agar (TSA) nutrient gel. Treated wood was cut into cubic pieces of about 3 mm of thickness with a surface of about 1 cm^2, as prepared above. Each piece was deposited on the nutrient gel, treated face down, contacting the gel, and using two pieces for each microorganism. The petri dishes containing the nutrient gel were closed and incubated for 24 h at 36° C. Sterile filters moistened with demineralized water and with a mercury chloride 0.018 mol/L solution were used and tested as negative and positive controls, respectively. After the incubation period, the growth inhibition zone was measured, and the incubation pursued for three (3) additional days to evaluate the growth under the wooden cubes after the prolonged incubation.
# (§3) Cubic pieces of Maplewood of about 1 cm of thickness with a surface of about […] were provided. For Samples 1 and 2, the pieces were heated on a heating plate at 230° C. for about 45 seconds, and dipped into the tannin solution for about 25 seconds, again heated on the heating plate for about 45 seconds and dipped in paraffin at 65° C. for about 25 seconds. For Samples 4 and 5, the pieces were heated on a heating plate for about 45 seconds, and dipped into the tannin solution for about 25 seconds. The impregnation rate was calculated to be around 301 g/m^2 (28 g/pi^2). […]
# [3] = tested on: Staphylococcus aureus ATCC 6538; assay: as above; conditions: 24 h at 36° C.
# Experimental: as §1, §2, §3
compound,measurement,setting,value
"[Cl][Hg][Cl] [Positive control, mercury chloride]",Diameter of the inhibition zone after 48 h,[1],22 mm
same,Diameter of the inhibition zone,[2],23 mm
same,Diameter of the inhibition zone,[3],32 mm
same,Diameter of the inhibition zone,[3]; listed as Negative control,25 mm
